The text below walks through data of patent US20060046975A1, “Method for preparing a medical solution for the manufacture of a medicament for peritoneal dialysis” (priority 2002, published 2006).

One series concerns cultured cells. As to the kind of experiment: in vitro inhibition of cell growth (ICG) in cultured cells by heat sterilised NAG solutions. In kind it is cell-based. From the text:
Experiments in which measurements of the percentage of inhibition of cell growth (ICG) and fluorescence have been made at varying NAG concentrations, and also at varying pH values, during terminal heat sterilisation are illustrated in FIGS. 1-4. The results of the experiments imply that the concentration of the amino sugar/sugars should be optimised.
(§1) A simple, reliable and known way to study the cytotoxicity of substances or of medical fluids is to test proliferation as in vitro inhibition of cell growth (ICG) in cultured cells. Another method to get a rough estimation of the amount of amino sugars that is rearranged is measurement of the fluorescence.
More precisely, from the graph in FIG. 1 it can be seen that the inhibition of cell growth reaches a maximum with sterilisation of a solution containing about 5% NAG. With increasing NAG concentration the inhibition of cell growth decreases.
The bar diagram in FIG. 2 illustrates the effect of increased NAG concentration at different pH values during terminal heat sterilisation.

Series [1] in a line: fluorescence of terminally heat sterilised NAG containing solution. In kind it is physicochemical. The note with it: FIG. 3; excitation at 350 nm, emission of 430 nm.
Text: as §1
The lowest fluorescence is seen at around pH 4.

The nature of series [2]: pH change of the solution during sterilisation. It counts as physicochemical. The text has this:
NAG and other amino sugars have a major difference from glucose and glucose-like compounds by having one amino group and possibly an acetyl group coupled to the glucose ring.

Series [3] can be described thus: analysis of degradation products (3-DG, 3,4-DGE) in heat sterilised solutions by HPLC. It counts as physicochemical. The note with it: heat sterilised NAG solutions. The text has this:
This cytotoxicity depends on the formation of toxic degradation products from said amino sugars. […] This fact has not been known previously and forms the basis for the present invention. It should be noted that the decomposition pattern for an amino sugar solution during heat sterilisation follows specific Maillard reactions giving several different toxic decomposition products. The decomposition pattern differs for e.g. a glucose solution during heat sterilisation, wherein different decomposition products are formed. This difference is illustrated in FIGS. 5a-5d, showing chromatograms when analysing 3-DG and 3,4-DGE in a NAG solution and in a glucose solution, respectively. The difference in degradation is likely due to that the NAG molecules contains groups that allows the Maillard reaction to take place and therefore create a large number of degradation products not seen in a glucose solution.

The test system of series [4] is human peritoneal mesothelial cells and fibroblasts. The note with it: Breborowicz et al 1998; cited from earlier work.
The subject of the next series is peritoneum. The note with it: cited from earlier work.

For the compound `CC(=O)N[C@H]1C(O)O[C@H](CO)[C@@H](O)[C@@H]1O` (stereo partly drawn) [NAG, N-acetylglucosamine], the “inhibition of cell growth with increasing NAG concentration” value in the series on cultured cells (FIG. 1, above the maximum at about 5% NAG) is given as “decreases”. The “NAG concentration during sterilisation at which inhibition of cell growth reaches a maximum” value in the series with cultured cells (FIG. 1, terminal heat sterilisation) is listed as “about 5%”. In addition, in the series on cultured cells (FIG. 2, 30% versus 1.5% NAG, for all three pH values), the “inhibition of cell growth, effect of NAG concentration during sterilisation” value is given as “lower after a terminal heat sterilisation at a NAG concentration of 30% than at a NAG concentration of 1.5%”. Besides, the “percentage inhibition of cell growth, effect of pH during sterilisation” value with cultured cells (FIG. 2, pH 3.0 versus pH 5.5 and 7.2) is “lower after terminal heat sterilisation at a pH of 3.0 than at a pH of 5.5 and 7.2”. Besides, the “optimal pH of sterilisation from an in vitro toxicological point of view” value with cultured cells (NAG containing solution, higher or lower pH gives higher percentage of inhibited growth) is reported as 2.5-3.5. Further, the “cytotoxicity after heat sterilisation” value in the series on cultured cells (amino sugars, e.g. NAG, in conventional medical solutions) is recorded as “increased cytotoxicity”. Also, the “pH at which fluorescence is lowest” value in series [1] is recorded as roughly 4. For the same compound, in series [2], the “change of pH of the solution during sterilisation” value is reported as “increases during sterilisation”. Also, the “known glucose degradation products found” value in series [3] was “none of the known glucose degradation products has been found”. For the same compound, the “production of hyaluronan and sulphated glycosaminoglycans” value in series [4] is on record as “rapidly stimulates”. For the same compound, the “effect on the peritoneum of dialysis solution supplemented with N-acetylglucosamine” value in the series with peritoneum (Wu et al 1998, chronic peritoneal dialysis) is “causes accumulation of glucosaminoglycans in the peritoneal interstitium”.

As to hyaluronan [reference compound], the “function of the peritoneum as a dialysis membrane” value in the series on peritoneum (Wieczorowska et al 1995, fluid supplemented with exogenous hyaluronan) was “better preserved”.
